Converted amounts (≈) assume the structure as drawn. Like-named read-outs stand apart in the source and are kept apart here.
How the values were obtained:
[1] = test system: rat tail flick response; test: rat tail flick radiant thermal heat analgesic (agonist) test (T.F. Ag.); conditions: in vivo
Source text: (§1) The test procedures used to determine the analgesic activities of the compounds have been described in detail in the prior art and are as follows: the acetylcholine-induced abdominal constriction test, which is a primary analgesic screening test designed to measure the ability of a test agent to suppress acetylcholine-induced abdominal constriction in mice, described by Collier et al., Brit. J. Pharmacol. Chemotherap. 32, 295 (1968); a modification of the anti-bradykinin test, which is also a primary analgesic screening procedure, described by Berkowitz et al., J. Pharmacol. Exp. Therap. 177, 500-508 (1971), Blane et al., J. Pharm. Pharmacol. 19, 367-373 (1967), Botha et al., Eur. J. Pharmacol. 6, 312-321 (1969) and Deffenu et al., J. Pharm. Pharmacol. 18, 135 (1966); the phenyl-p-quinone-induced writhing test, also a primary analgesic screening test, designed to measure the ability of a test agent to prevent phenyl-p-quinone-induced writhing in mice, described by Pearl and Harris, J. Pharmacol. Exptl. Therap. 154, 319-323 (1966); the rat tail flick radiant thermal heat analgesic (agonist) test described by D'Amour and Smith, J. Pharmacol. Exptl. Therap. 72, 74 (1941) as modified by Bass and VanderBrook, J. Am. Pharm. Assoc. Sci. Ed. […]

[2] = test system: carrageenin-induced foot edema; test: inhibition of carrageenin-induced foot edema test (C.E.); format: in vivo; conditions: oral; for inhibition in vivo at 80 µmol/kg: dose 0.08 millimoles/kg; for inhibition in vivo at 80 µmol/kg / inhibition in vivo at 324 µmol/kg / inhibition in vivo at 5 µmol/kg / inhibition in vivo at 20 µmol/kg / inhibition in vivo at 4 µmol/kg: read-out: C.E. percent inhibition; for inhibition in vivo at 5 µmol/kg: dose 0.005 millimoles/kg; for inhibition in vivo at 20 µmol/kg: dose 0.02 millimoles/kg; for inhibition in vivo at 4 µmol/kg: dose 0.004 millimoles/kg
[3] = antipyretic activity in the rat; format: in vivo
[4] = test system: acetylcholine-induced abdominal constriction; test: acetylcholine-induced abdominal constriction test (Ach); format: in vivo, mice; conditions: for ED50: Mus musculus, read-out: Ach ED50
Source text: J. Pharmacol. Chemotherap. 32, 295 (1968); a modification of the anti-bradykinin test, which is also a primary analgesic screening procedure, described by Berkowitz et al., J. Pharmacol. Exp. Therap. 177, 500-508 (1971), Blane et al., J. Pharm. Pharmacol. 19, 367-373 (1967), Botha et al., Eur. J. Pharmacol. 6, 312-321 (1969) and Deffenu et al., J. Pharm. Pharmacol. 18, 135 (1966); the phenyl-p-quinone-induced writhing test, also a primary analgesic screening test, designed to measure the ability of a test agent to prevent phenyl-p-quinone-induced writhing in mice, described by Pearl and Harris, J. Pharmacol. Exptl. Therap. 154, 319-323 (1966); the rat tail flick radiant thermal heat analgesic (agonist) test described by D'Amour and Smith, J. Pharmacol. Exptl. Therap. 72, 74 (1941) as modified by Bass and VanderBrook, J. Am. Pharm. Assoc. Sci. Ed. 41, 569 (1956); and the phenazocine antagonist test, which is designed to measure the ability of a test agent to antagonize the effect of phenazocine in the above-indicated rat tail flick response test, described by Harris and Pierson, J. Pharmacol. Exptl. Therap. 143, 141 (1964).
The ED50 is the calculated Effective Dose in 50% of the test animals. The abbreviations s.c., p.o. and i.p. stand for subcutaneous, peroral and intraperitoneal routes of administration, respectively. The compounds are identified by the Example numbers above where their preparations are described.

[5] = test system: phenyl-p-quinone-induced writhing; test: phenyl-p-quinone-induced writhing test (PPQ); format: in vivo, mice; conditions: Mus musculus, po
Source text: as §1

[6] = test system: effect of phenazocine in the rat tail flick response; test: phenazocine antagonist test in the rat tail flick response (T.F. Antag.); conditions: in vivo
Source text: as §1

[7] = test system: bradykinin; test: anti-bradykinin test (BDK); format: in vivo
Source text: The test procedures used to determine the analgesic activities of the compounds have been described in detail in the prior art and are as follows: the acetylcholine-induced abdominal constriction test, which is a primary analgesic screening test designed to measure the ability of a test agent to suppress acetylcholine-induced abdominal constriction in mice, described by Collier et al., Brit. J. Pharmacol. Chemotherap. 32, 295 (1968); a modification of the anti-bradykinin test, which is also a primary analgesic screening procedure, described by Berkowitz et al., J. Pharmacol. Exp. Therap. 177, 500-508 (1971), Blane et al., J. Pharm. Pharmacol. 19, 367-373 (1967), Botha et al., Eur. J. Pharmacol. 6, 312-321 (1969) and Deffenu et al., J. Pharm. Pharmacol. 18, 135 (1966); the phenyl-p-quinone-induced writhing test, also a primary analgesic screening test, designed to measure the ability of a test agent to prevent phenyl-p-quinone-induced writhing in mice, described by Pearl and Harris, J. Pharmacol. Exptl. Therap. 154, 319-323 (1966); the rat tail flick radiant thermal heat analgesic (agonist) test described by D'Amour and Smith, J. Pharmacol. Exptl. Therap. 72, 74 (1941) as modified by Bass and VanderBrook, J. Am. Pharm. Assoc. Sci. Ed. 41, 569 (1956); and the phenazocine antagonist test, which is designed to measure the ability of a test agent to antagonize the effect of phenazocine in the above-indicated rat tail flick response test, described by Harris and Pierson, J. Pharmacol. Exptl. Therap. 143, 141 (1964).
Data so obtained for the species found active in one or more of these tests are given in TABLE C below, results being expressed either in terms of the ED50 or, in the acetylcholine-induced writhing test, as the percent inhibition of writhing in the test animals at a given dose level. The ED50 is the calculated Effective Dose in 50% of the test animals. The abbreviations s.c., p.o. and i.p. stand for subcutaneous, peroral and intraperitoneal routes of administration, respectively. The compounds are identified by the Example numbers above where their preparations are described.

[8] = test system: adjuvant-induced arthritis; test: inhibition of adjuvant-induced arthritis test (A.A.); format: in vivo; conditions: oral, read-out: A.A. percent inhibition; for inhibition in vivo at 5 µmol/kg: dose 0.005 millimoles/kg; for inhibition in vivo at 20 µmol/kg: dose 0.02 millimoles/kg; for inhibition in vivo at 80 µmol/kg: dose 0.08 millimoles/kg
Description: Anti-inflammatory activity was determined using (1) the inhibition of carrageenin-induced foot edema test essentially described by Winter et al., Proc. Soc. Exp. Biol. and Med. 111, 554 (1962) as modified by Van Arman et al., J. Pharmacol. Exptl. Therap. 150, 328 (1965) and (2) a modification of the inhibition of adjuvant-induced arthritis test described by Pierson, J. Chronic Diseases 16, 863 (1963) and Glenn et al., Am. J. Vet. Res. 26, 1180 (1965).
The N-{2-,3- and 4-[R1 -(phenyl)-C(=X)]-phenyl-lower-alkyl}amines of formulas I, Ia and Ib of the invention have been tested in the carrageenin edema (CE) and adjuvant arthritis (AA) tests and found to have anti-inflammatory activity. For comparative purposes, data obtained in the carrageenin edema test on the reference compound (designated "Ref."), 4[(3-benzoylphenyl)methyl]morpholine, disclosed in French Patent 1,549,342, are also given. All data were obtained on oral administration.

[9] = test system: herpes simplex virus types 1 and 2; test: in vitro anti-viral activity against herpes simplex viruses types 1 and 2 (BSC cell line, monkey kidney); format: cell-based; conditions: read-out: MIC (Minimum Inhibitory Concentration)
Description: Monolayers of tissue cultures (BSC, cell line, monkey kidney) were infected with one hundred TCID50 (Tissue Culture Infectious Dose50) of infectious virus. After one hour of virus adsorption, fresh maintenance medium containing various concentrations of the test compounds was added to the monolayers. Cultures were then incubated at 36°-37° C., and after forty-eight and seventy-two hours, cultures were examined microscopically. […] In the presence of an active compound, cells grow normally similar to those in the tissue culture control. Simultaneously with the anti-viral evaluation, the toxicity of each compound was evaluated in separate cultures. Identical concentrations of the test compound were added to the tissue culture monolayers in the absence of virus. Those concentrations of the compound which show toxic effects on the cells were not considered in the anti-viral evaluation.

Row | Compound | T.F. Ag. [1] | inhibition in vivo at 80 µmol/kg [2] | inhibition in vivo at 324 µmol/kg ([2]; dose 0.324 millimoles/kg) | antipyretic activity ([3]; 3.25 mg./kg. p.o.) | antipyretic activity ([3]; 6.5 mg./kg. p.o.) | antipyretic activity ([3]; 13 mg./kg. p.o.) | antipyretic activity ([3]; 26 mg./kg. p.o.) | ED50 ([4]; po) | ED50 [5] | T.F. Antag. [6] | ED50 ([7]; po) | inhibition in vivo at 5 µmol/kg [8] | inhibition in vivo at 20 µmol/kg [8] | inhibition in vivo at 80 µmol/kg [8] | inhibition in vivo at 5 µmol/kg [2] | inhibition in vivo at 20 µmol/kg [2] | MIC [9] | inhibition in vivo at 4 µmol/kg [2] | further results
1 | CC(CN1CCOCC1)c1cccc(C(=O)c2ccccc2)c1.Cl.O (stereo not drawn) [7H (HCl), 4-[2-(3-benzoylphenyl)propyl]morpholine hydrochloride monohydrate] | Inac. | 68% | 73% | not at 3.25 mg./kg. | Showed significant antipyretic activity | Showed significant antipyretic activity | Showed significant antipyretic activity | 8.4 mg/kg | 132 mg/kg | Inac. | 13 mg/kg |  |  |  |  |  |  |  | ED50 ([4]; sc): 14 mg/kg; ED50 ([7]; ip): 82 mg/kg
2 | CC(CN1CCCCC1CC1CCCCC1)c1cccc(C(=O)c2ccccc2)c1 (stereo not drawn) [12, 14] |  | 51% | 69% |  |  |  |  | 55 mg/kg |  |  | 63 mg/kg | 69% | 81% | 87% | 21% | 41% | 6 µg/mL (≈ 14.9 µM) |  | Ach percent inhibition of writhing ([4]; dose 75, s.c.): 27%
3 | CC1CCCC(C)N1CCc1cccc(C(O)c2ccccc2)c1 (stereo not drawn) [Example 1B, 2,6-Dimethyl-1-{2-[3-(α-hydroxybenzyl)phenyl]ethyl}piperidine] |  | 13% |  |  |  |  |  |  |  |  |  |  |  |  |  | 0% | 50 µg/mL (≈ 155 µM) | 0% | toxicity (entry in C.E. column) ([2]; dose 0.324 millimoles/kg): Toxic
4 | CC(CN1CCCCC1CC1CCCCC1)c1cccc(C(O)c2ccc(Cl)cc2)c1 (stereo not drawn) [Example 5, 2-cyclohexylmethyl-1-{2-[3-(α-hydroxy-4-chlorobenzyl)phenyl]propyl}piperidine] |  |  |  |  |  |  |  |  |  |  |  | 64% | 70% | 88% |  | 41% | 6 µg/mL (≈ 13.6 µM) | 14% | 
5 | CC(CN1CCC2(CC1)OCCO2)c1cccc(C(=O)c2ccccc2)c1 (stereo not drawn) [Example 7G, 8-[2-(3-Benzoylphenyl)propyl]-1,4-dioxa-8-azaspiro[4,5]decane] | Inac. |  |  | not at 6.5 or 3.25 mg./kg. | not at 6.5 or 3.25 mg./kg. | Showed significant antipyretic activity | Showed significant antipyretic activity | 4.7 mg/kg | 200 mg/kg | Inac. | 14 mg/kg |  |  |  |  |  |  |  | 
6 | CC(CN1CCCCC1CC1CCCCC1)c1cccc(Cc2ccccc2)c1 (stereo not drawn) [Example 10, 2-cyclohexylmethyl-1-[2-(3-benzylphenyl)propyl]piperidine] |  | 60% |  |  |  |  |  |  |  |  |  | 25% | 63% | 91% | 7% | 26% | 6 µg/mL (≈ 15.4 µM) |  | 
